Source: patent US20080293771A1, “AZACYCLYLBENZAMIDE DERIVATIVES AS HISTAMINE-3 ANTAGONISTS” (Wyeth, priority 2007, published 2008)
Counter-ions that a name gives are not always drawn.

First: CN(C(=O)c1ccc(-n2cccn2)cc1)C1CCN(C2CCC2)CC1 (as salt: hydrochloride) [Example 86, N-(1-cyclobutylpiperidin-4-yl)-N-methyl-4-(1H-pyrazol-1-yl)benzamide]
Second: CN(C(=O)c1ccc(Cn2cccn2)cc1)C1CCN(C2CCC2)CC1 (as salt: hydrochloride) [Example 92, N-(1-cyclobutylpiperidin-4-yl)-N-methyl-4-(1H-pyrazol-1-ylmethyl)benzamide]
The melting point of the first is higher: 272 to 273 °C for the first, 235 to 237 °C for the second.

First: CC(C)N1CCC(N(C)C(=O)c2ccc(Cn3cccn3)cc2)CC1 (as salt: hydrochloride) [Example 91, N-methyl-N-[1-(1-methylethyl)piperidin-4-yl]-4-(1H-pyrazol-1-ylmethyl)benzamide]
Second: Cc1nc2ccccc2n1-c1ccc(C(=O)N(C)C2CCN(C(C)C)CC2)cc1F (as salt: hydrochloride) [Example 119, 3-fluoro-N-methyl-4-(2-methyl-1H-benzimidazol-1-yl)-N-[1-(1-methylethyl)piperidin-4-yl]benzamide]
The melting point of the first is lower: 213 to 215 °C for the first, 279 to 281 °C for the second.

Compared with `Cc1nc2ccccc2n1-c1ccc(C(=O)N(C)[C@@H]2CCN(C(C)C)C2)cc1F` (as salt: hydrochloride) [Example 103, 3-fluoro-N-methyl-4-(2-methyl-1H-benzimidazol-1-yl)-N-[(3R)-1-(1-methylethyl)pyrrolidin-3-yl]benzamide], `Cc1cc(C(=O)N(C)[C@@H]2CCN(C(C)C)C2)ccc1-n1c(C)nc2ccccc21` (as salt: hydrochloride) [Example 107, N,3-dimethyl-4-(2-methyl-1H-benzimidazol-1-yl)-N-[(3R)-1-(1-methylethyl)pyrrolidin-3-yl]benzamide] is higher in melting point: 175 to 177 °C for the first, 183 to 185 °C for the second.

`Cc1nc2ccccc2n1-c1ccc(C(=O)N(C)[C@@H]2CCN(C3CCC3)C2)cc1F` (as salt: hydrochloride) [Example 104, N-[(3R)-1-cyclobutylpyrrolidin-3-yl]-3-fluoro-N-methyl-4-(2-methyl-1H-benzimidazol-1-yl)benzamide] and `Cc1cc(C(=O)N(C)[C@@H]2CCN(C3CCC3)C2)ccc1-n1c(C)nc2ccccc21` (as salt: hydrochloride) [Example 108, N-[(3R)-1-cyclobutylpyrrolidin-3-yl]-N,3-dimethyl-4-(2-methyl-1H-benzimidazol-1-yl)benzamide] fall in the same range of melting point: 164 to 166 °C for the first, 164 to 166 °C for the second.

Compared with `Cc1nc2ccccc2n1-c1ccc(C(=O)N(C)[C@@H]2CCN(C(C)C)C2)c(Cl)c1` (as salt: hydrochloride) [Example 105, 2-chloro-N-methyl-4-(2-methyl-1H-benzimidazol-1-yl)-N-[(3R)-1-(1-methylethyl)pyrrolidin-3-yl]benzamide], `COc1cc(-n2c(C)nc3ccccc32)ccc1C(=O)N(C)[C@@H]1CCN(C(C)C)C1` (as salt: hydrochloride) [Example 111, (R)—N-(1-isopropylpyrrolidin-3-yl)-2-methoxy-N-methyl-4-(2-methyl-1H-benzo[d]imidazol-1-yl)benzamide] is lower in melting point: 204 to 205 °C for the first, 193 to 195 °C for the second.

Compared with `Cc1nc2ccccc2n1-c1ccc(C(=O)N(C)[C@@H]2CCN(C3CCC3)C2)c(Cl)c1` (as salt: hydrochloride) [Example 106, 2-chloro-N-[(3R)-1-cyclobutylpyrrolidin-3-yl]-N-methyl-4-(2-methyl-1H-benzimidazol-1-yl)benzamide], `COc1cc(-n2c(C)nc3ccccc32)ccc1C(=O)N(C)[C@@H]1CCN(C2CCC2)C1` (as salt: hydrochloride) [Example 112, (R)—N-(1-cyclobutylpyrrolidin-3-yl)-2-methoxy-N-methyl-4-(2-methyl-1H-benzo[d]imidazol-1-yl)benzamide] is lower in melting point: 207 to 209 °C for the first, 202 to 204 °C for the second.

Compared with `COc1cc(C(=O)N(C)[C@@H]2CCN(C(C)C)C2)ccc1-n1c(C)nc2ccccc21` (as salt: hydrochloride) [Example 109, 3-methoxy-N-methyl-4-(2-methyl-1H-benzimidazol-1-yl)-N-[(3R)-1-(1-methylethyl)pyrrolidin-3-yl]benzamide], `COc1cc(C(=O)N(C)C2CCN(C(C)C)CC2)ccc1-n1c(C)nc2ccccc21` (as salt: hydrochloride) [Example 125, 3-methoxy-N-methyl-4-(2-methyl-1H-benzimidazol-1-yl)-N-[1-(1-methylethyl)piperidin-4-yl]benzamide] is higher in melting point: 168 to 170 °C for the first, 250 to 252 °C for the second.

Compared with `COc1cc(C(=O)N(C)[C@@H]2CCN(C3CCC3)C2)ccc1-n1c(C)nc2ccccc21` (as salt: hydrochloride) [Example 110, N-[(3R)-1-cyclobutylpyrrolidin-3-yl]-3-methoxy-N-methyl-4-(2-methyl-1H-benzimidazol-1-yl)benzamide], `COc1cc(C(=O)N(C)C2CCN(C3CCCC3)CC2)ccc1-n1c(C)nc2ccccc21` (as salt: hydrochloride) [Example 126, N-(1-cyclopentylpiperidin-4-yl)-3-methoxy-N-methyl-4-(2-methyl-1H-benzimidazol-1-yl)benzamide] is higher in melting point: 168 to 170 °C for the first, 244 to 246 °C for the second.

First: COc1cc(-n2c(C)nc3ccccc32)ccc1C(=O)N(C)C1CCN(C(C)C)CC1 (as salt: hydrochloride) [Example 127, N-(1-isopropylpiperidin-4-yl)-2-methoxy-N-methyl-4-(2-methyl-1H-benzo[d]imidazol-1-yl)benzamide]
Second: COc1cc(-n2c(C)nc3ccccc32)ccc1C(=O)N(C)C1CCN(C2CCCC2)CC1 (as salt: hydrochloride) [Example 128, N-(1-cyclopentylpiperidin-4-yl)-2-methoxy-N-methyl-4-(2-methyl-1H-benzo[d]imidazol-1-yl)benzamide]
The melting point of the first is higher: 215 to 217 °C for the first, 210 to 212 °C for the second.

Compared with `Cc1nc2ccccc2n1-c1ccc(C(=O)N[C@@H]2CCN(C3CCCCC3)C2)cc1` (as salt: hydrochloride) [Example 137, N-[(3R)-1-cyclohexylpyrrolidin-3-yl]-4-(2-methyl-1H-benzimidazol-1-yl)benzamide], `CCN(C(=O)c1ccc(-n2c(C)nc3ccccc32)cc1)[C@@H]1CCN(C2CCCCC2)C1` (as salt: hydrochloride) [Example 142, N-[(3R)-1-cyclohexylpyrrolidin-3-yl]-N-ethyl-4-(2-methyl-1H-benzimidazol-1-yl)benzamide] is lower in melting point: 194 to 196 °C for the first, 177 to 179 °C for the second.

First: CCN(C(=O)c1ccc(-n2c(C)nc3ccccc32)cc1)[C@@H]1CCNC1 (as salt: hydrochloride) [Example 138, (R)—N-ethyl-4-(2-methyl-1H-benzo[d]imidazol-1-yl)-N-(pyrrolidin-3-yl)benzamide hydrochloride]
Second: Cc1nc2ccccc2n1Cc1ccc(C(=O)N(C)[C@@H]2CCN(C3CCC3)C2)c2ccccc12 (as salt: hydrochloride) [Example 143b, (R)—N-(1-cyclobutylpyrrolidin-3-yl)-N-methyl-4-((2-methyl-1H-benzo[d]imidazol-1-yl)methyl)-1-naphthamide]
The melting point of the first is higher: 174 to 176 °C for the first, 157 to 159 °C for the second.

Compared with `Cc1nc2ccccc2n1Cc1ccc(C(=O)N(C)[C@@H]2CCN(C(C)C)C2)c2ccccc12` (as salt: hydrochloride) [Example 143a, (R)—N-(1-isopropylpyrrolidin-3-yl)-N-methyl-4-((2-methyl-1H-benzo[d]imidazol-1-yl)methyl)-1-naphthamide], `Cc1nc2ccccc2n1Cc1ccc(C(=O)N(C)C2CCN(C(C)C)CC2)c2ccccc12` (as salt: hydrochloride) [Example 144b, N-(1-isopropylpiperidin-4-yl)-N-methyl-4-((2-methyl-1H-benzo[d]imidazol-1-yl)methyl)-1-naphthamide] is lower in melting point: 192 to 194 °C for the first, 153 to 155 °C for the second.

`Cc1nc2ccccc2n1Cc1ccc(C(=O)N(C)C2CCN(C3CCCC3)CC2)c2ccccc12` (as salt: hydrochloride) [Example 144a, N-(1-cyclopentylpiperidin-4-yl)-N-methyl-4-((2-methyl-1H-benzo[d]imidazol-1-yl)methyl)-1-naphthamide] showed a melting point of 228 to 230 °C.

In the case of `CN(C(=O)c1ccc(-n2cccn2)cc1)C1CCN(C2CCCC2)CC1` (as salt: hydrochloride) [Example 87, N-(1-cyclopentylpiperidin-4-yl)-N-methyl-4-(1H-pyrazol-1-yl)benzamide], the melting point is reported as 240 °C (dec.).
In the case of `CN(C(=O)c1ccc(Cn2cccn2)cc1)C1CCN(C2CCCC2)CC1` (as salt: hydrochloride) [Example 93, N-(1-cyclopentylpiperidin-4-yl)-N-methyl-4-(1H-pyrazol-1-ylmethyl)benzamide], the melting point is reported as 250 °C (dec.).
In the case of `Cc1nc2ccccc2n1-c1ccc(C(=O)N(C)C2CCN(C3CCCC3)CC2)cc1F` (as salt: hydrochloride) [Example 120, N-(1-cyclopentylpiperidin-4-yl)-3-fluoro-N-methyl-4-(2-methyl-1H-benzimidazol-1-yl)benzamide], the melting point is reported as 250 °C (dec.).
In the case of `Cc1nc2ccccc2n1-c1ccc(C(=O)N(C)C2CCN(C(C)C)CC2)c(Cl)c1` (as salt: hydrochloride) [Example 121, 2-chloro-N-methyl-4-(2-methyl-1H-benzimidazol-1-yl)-N-[1-(1-methylethyl)piperidin-4-yl]benzamide], the melting point is reported as 250 °C (dec.).
With `Cc1nc2ccccc2n1-c1ccc(C(=O)N(C)C2CCN(C3CCCC3)CC2)c(Cl)c1` (as salt: hydrochloride) [Example 122, 2-chloro-N-(1-cyclopentylpiperidin-4-yl)-N-methyl-4-(2-methyl-1H-benzimidazol-1-yl)benzamide] the melting point was 240 °C (dec.).
With `Cc1cc(C(=O)N(C)C2CCN(C(C)C)CC2)ccc1-n1c(C)nc2ccccc21` (as salt: hydrochloride) [Example 123, N,3-dimethyl-4-(2-methyl-1H-benzimidazol-1-yl)-N-[1-(1-methylethyl)piperidin-4-yl]benzamide] the melting point was 250 °C (dec.).
With `Cc1cc(C(=O)N(C)C2CCN(C3CCCC3)CC2)ccc1-n1c(C)nc2ccccc21` (as salt: hydrochloride) [Example 124, N-(1-cyclopentylpiperidin-4-yl)-N,3-dimethyl-4-(2-methyl-1H-benzimidazol-1-yl)benzamide] the melting point was 240 °C (dec.).
